The source of these data is patent US9505741B2, “Prolylhydroxylase inhibitors and methods of use” (CORNELL UNIVERSITY, priority 2010, dated 2016).

In test [1] the test system is HIF ODD-luc reporter (HIF PHD-controlled stability). As to the kind of experiment: HTS with cell-based HIF ODD-luciferase reporter (SH-SY5Y-ODD-luc cells). The arrangement: species or system human. As to conditions: three hours, SH-SY5Y-ODD-luc. The source says: For HTS, a cell-based reporter system was employed. The cell-based reporter system was generated by fusing HIF-1a oxygen degradable domain (ODD) to luciferase (Safran M. et al., PNAS, 2006, 103, 105-110), which represents a cell-based capture assay monitored by the consumption of the luciferase-labeled HIF substrate under the conditions more physiological than in vitro test tubes. In accord with their structure activity relationship in reporter assay, the best “hits” stabilize HIF1, upregulate known HIF target genes in a human neuronal line, and exert neuroprotective effects in established model of oxidative stress in cortical neurons.
The reporter cell lines constitutively expressing ODD-luc (human neuroblastoma, SH-SY5Y) were stable for more than one year without significant change in their response to canonical PHD inhibitors such as DFO, dihydroxybenzoate (DHB), dimethyloxalylglycine (DMOG), and ciclopirox (FIG. 1B). In order to verify the specificity of luciferase changes as an assay for PHD activity, several control lines were developed: the control line expressing ODD-luc with proline 564 and 567 mutated to Ala generates luciferase fusion that cannot be degraded and experimentally identifies a ceiling level of ODD-luc protein attainable in these cells. The background signal for the wild-type HIF ODD-luc line (PYIP) corresponds to approximately 5-6% of the ODD-luc levels in the control line AYIA (double mutant P564A/P567A line) (FIG. 2). Treatment with 10 μM ciclopirox results in a 10-fold increase of a background signal for the wild-type ODD-luc reporter (PYIP line), i.e. reaches almost 50% of the threshold value (FIG. 2).
The assay was optimized for HTS format to provide Z values above 0.7. SH-SY5Y-ODD-luc cells were plated into 384—well white flat-bottom plates at 7,000 cell/well in 30 μl of serum and incubated overnight at 37° C., 5% CO2. The next day, compounds were added to a final concentration of 10 μM, plates were incubated for three hours at 37° C., and luciferase activity was measured using SteadyGlo™ reagent (Promega). Each plate had two internal standards, ciclopirox (100%), and DMSO (0%). The reporter activation (%) was calculated as a ratio (L−LDMSO)/(Lciclopirox−LDMSO). Hits were defined as those >25%. HTS of 85,000 compounds was performed at Rockefeller HTS Resource Center. 295 hits from the initial screen have been tested in quadruplicate, 160 were confirmed. Classification into 10 structural clusters has been done manually; 25 hits were singletons.
On the technique in general: A reporter such as luciferase makes a cellular process visible.

The test system of a further test is HIF1α protein. As to the kind of experiment: HIF immunoblot in SH-SY5Y neuroblastoma cells. As to conditions: 5 μM, three hours. The test is classed as cell-based, human. The protocol: After three hours of 5 μM drug treatment, cells were scraped in ice cold PBS and centrifuged at 1,000×g per 5 min. The pellet was used for nuclear extract preparation with the NE-PER Nuclear and Cytoplasmic Extraction kit (Pierce). After SDS-PAGE followed by transfer to a nitrocellulose membrane, the latter was incubated overnight at 4° C. with primary polyclonal antibody against HIF-1α (Upstate) and monoclonal antibody against β-actin (Sigma) (dilution 1:250 and 1:5000, respectively, in Odyssey Blocking Buffer). Secondary fluorophore conjugated Odyssey IRDye-680 and IRD-800 antibodies (LI-COR Biosciences) were added at 1:20,000 in Odyssey Blocking Buffer, and incubated for one hour at room temperature. Immunoreactive proteins were detected using Odyssey IR imaging system (LI-COR Biosciences).
For orientation: In western blotting, separated proteins are transferred to a membrane and probed.

SMILES strings stand for the structures.

Turning to `Oc1cccc2cccnc12` [8-hydroxyquinoline, reference compound], the “fold reporter activation over background” value in test [1] (10 μM) is reported as 4-5 fold. Besides, the activation at 10 µM in test [1] (Homo sapiens, 3 h, read-out: reporter activation (%) relative to ciclopirox (100%) and DMSO (0%)) was in the range of 35 to 45%. The HIF1α protein stabilization entry with HIF1α protein is on record as “not”.
